Laboratory results as given in patent publication US20110230493A1, “1-OXA-8-Azaspiro [4,5] Decabe-8-Carboxamide Compounds as FAAH Inhibitors” (Pfizer Inc., priority 2008, published 2011).
Marks after values point to notes of the source that are not given here.

Columns and labels:
[1] = system: Male Sprague-Dawley Rats; experiment: In vivo Complete Freund's Adjuvant (CFA) efficacy assay, inhibition of allodynia; parameters: species or system rat; key: (+) indicates the test compound was determined to be efficacious at 3 mpk, oral dosing; (−) indicates the test compound was determined to not be efficacious at 3 mpk, oral dosing; conditions: p < 0.05 vs vehicle group
Method: For additional information on the CFA efficacy assay, see Jayamanne et al., Brit. J. Pharmacol. 2006, 147, 281-288. Experiments were performed on adult Male Sprague-Dawley Rats (200 g-250 g). Inflammation was induced in the left hindpaw of the rat by an intra-plantar injection of 150 uL Complete Freund's Adjuvant (CFA) (SIGMA F5881). The CFA injection immediately induces local inflammation, paw swelling, and pain that persists for at least two weeks post-injection. Baseline paw withdrawal threshold (PWT) was measured to determine the percent inhibition of allodynia using a set of Von Frey Hairs on day 4 post injection as illustrated by the Dixon Up and Down Method (W. J. Dixon, Ann. Rev. Pharmacol. Toxicol. 1980, 20:441-462). […] Following Dose administration PWT threshold was evaluated again at four hours postdose. The Sprague-Dawley rats used in this assay were purchased from Harlan, 8520 Allison Pointe Blvd., Indianapolis, Ind., 46250, U.S.A. Sprague-Dawley rats are an outbred breed of albino rats first produced by the Sprague Dawley farms in Madison, Wis., U.S.A.
Percent Inhibition of Allodynia was determined by the formula: […]
ΔPWT measurements were averaged for each treatment group and statistical comparisons between groups were made using ANOVA and Dunnett's two-tailed test. […]

[2] = target: T1, rat FAAH (Rattus norvegicus, UniProt P97612); experiment: FAAH assay, rat FAAH enzyme inactivation (kinact/Ki); assay type: biochemical; conditions: oleamide 50 μM, 30° C.; for rFAAH kinact/Ki: in vitro, pH 7.4; for kinact/KI: pH 7.4, in vitro, read-out: rFAAH kinact/Ki
T1 construct: made in house; host or cells: E. coli
T1 sequence (P97612 1-579): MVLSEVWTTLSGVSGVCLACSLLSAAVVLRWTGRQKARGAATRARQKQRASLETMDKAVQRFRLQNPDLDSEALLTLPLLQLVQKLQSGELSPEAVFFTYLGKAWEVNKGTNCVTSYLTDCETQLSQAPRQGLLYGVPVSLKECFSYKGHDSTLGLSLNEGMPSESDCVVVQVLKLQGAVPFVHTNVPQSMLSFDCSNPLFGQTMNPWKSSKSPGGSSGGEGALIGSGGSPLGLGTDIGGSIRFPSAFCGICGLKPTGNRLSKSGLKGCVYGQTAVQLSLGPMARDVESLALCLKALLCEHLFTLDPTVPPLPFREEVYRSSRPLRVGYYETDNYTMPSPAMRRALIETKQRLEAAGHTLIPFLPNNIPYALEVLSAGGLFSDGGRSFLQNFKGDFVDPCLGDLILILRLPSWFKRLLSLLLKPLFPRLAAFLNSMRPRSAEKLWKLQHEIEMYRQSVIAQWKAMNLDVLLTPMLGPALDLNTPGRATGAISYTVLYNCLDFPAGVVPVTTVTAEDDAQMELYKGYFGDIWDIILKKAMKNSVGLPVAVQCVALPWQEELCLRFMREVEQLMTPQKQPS
Method in brief: (§1)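 Oleamide hydrolysis by 1-4 nM purified E. coli-expressed FAAH (substrate 50 μM = Km) coupled to GDH/NADH, pH 7.4 phosphate, 7.5% DMSO and EtOH, 30° C; A340 followed 90 min. kobs from mono-exponential fits; kinact/Ki from kobs-versus-concentration slope, multiplied by two.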

[3] = target: T2, human FAAH (Homo sapiens, UniProt O00519); experiment: FAAH assay, human FAAH enzyme inactivation (kinact/Ki); assay type: biochemical; conditions: oleamide 50 μM, 30° C.; for hFAAH kinact/Ki: in vitro, pH 7.4; for kinact/KI: pH 7.4, in vitro, read-out: hFAAH kinact/Ki
T2 construct: made in house; host or cells: E. coli
T2 sequence (O00519 1-579): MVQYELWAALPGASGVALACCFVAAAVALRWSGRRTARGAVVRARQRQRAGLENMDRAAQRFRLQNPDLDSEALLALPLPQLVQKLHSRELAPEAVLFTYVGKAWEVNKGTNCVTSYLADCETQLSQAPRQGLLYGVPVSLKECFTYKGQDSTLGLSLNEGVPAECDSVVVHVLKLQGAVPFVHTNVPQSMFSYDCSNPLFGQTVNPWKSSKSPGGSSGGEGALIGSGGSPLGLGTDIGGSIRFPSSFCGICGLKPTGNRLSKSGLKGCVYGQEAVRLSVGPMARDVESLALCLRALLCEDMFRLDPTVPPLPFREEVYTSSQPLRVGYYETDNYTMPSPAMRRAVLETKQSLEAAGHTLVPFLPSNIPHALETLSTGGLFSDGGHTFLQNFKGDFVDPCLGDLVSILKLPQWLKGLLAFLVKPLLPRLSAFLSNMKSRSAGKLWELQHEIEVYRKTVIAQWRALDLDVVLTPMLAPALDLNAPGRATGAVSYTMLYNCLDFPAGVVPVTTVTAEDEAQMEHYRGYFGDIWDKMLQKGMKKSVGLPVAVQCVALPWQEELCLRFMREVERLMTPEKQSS
Method in brief: as §1

[4] = 3 mpk, oral dosing, PWT four hours postdose

Row | Compound | CFA Efficacy [1, 4] | rFAAH kinact/Ki [2] [M⁻¹ s⁻¹] | hFAAH kinact/Ki [3] [M⁻¹ s⁻¹] | kinact/KI [2] [M⁻¹ s⁻¹] | kinact/KI [3] [M⁻¹ s⁻¹] | CFA Efficacy ([1]; 10 mpk, intraperitoneal dosing)
1 | Cn1nnnc1NC(=O)N1CCC2(CC1)CC(c1noc(-c3ccc(C(F)(F)F)cc3)n1)CO2 (single isomer, unassigned) [Example 83, N-(1-methyl-1H-tetrazol-5-yl)-3-{5-[4-(trifluoromethyl)phenyl]-1,2,4-oxadiazol-3-yl}-1-oxa-8-azaspiro[4.5]decane-8-carboxamide] | (+) | 974 | 5480 |  |  | 
2 | Cn1nnnc1NC(=O)N1CCC2(CC1)CC(c1noc(-c3ccc(OC(F)(F)F)cc3)n1)CO2 (single isomer, unassigned) [Example 84, N-(1-methyl-1H-tetrazol-5-yl)-3-{5-[4-(trifluoromethoxy)phenyl]-1,2,4-oxadiazol-3-yl}-1-oxa-8-azaspiro[4.5]decane-8-carboxamide] | (+) |  |  | 1500 | 8420 | 
3 | Cn1nnnc1NC(=O)N1CCC2(CC1)CC(c1noc(-c3ccc(OC(F)(F)F)cc3)n1)CO2 (single isomer, unassigned) [Example 85, N-(1-methyl-1H-tetrazol-5-yl)-3-{5-[4-(trifluoromethoxy)phenyl]-1,2,4-oxadiazol-3-yl}-1-oxa-8-azaspiro[4.5]decane-8-carboxamide] | (+) | 1340 | 5980 |  |  | 
4 | Cn1nnnc1NC(=O)N1CCC2(CC1)CC(c1cccc(C(F)(F)F)c1)CO2 (single isomer, unassigned) [Example 93, N-(1-methyl-1H-tetrazol-5-yl)-3-[3-(trifluoromethyl)phenyl]-1-oxa-8-azaspiro[4.5]decane-8-carboxamide] | (+) |  |  | 2160 | 4600 | 
5 | Cn1nnnc1NC(=O)N1CCC2(CC1)CC(c1cccc(C(F)(F)F)c1)CO2 (single isomer, unassigned) [Example 94, N-(1-methyl-1H-tetrazol-5-yl)-3-[3-(trifluoromethyl)phenyl]-1-oxa-8-azaspiro[4.5]decane-8-carboxamid] | (+) | 2110 | 3760 |  |  | 
6 | O=C(Nc1cccnn1)N1CCC2(CC1)C[C@@H](c1cccc(Oc3ccc(C(F)(F)F)cn3)c1)CO2 [Example 2, (3S)—N-pyridazin-3-yl-3-(3-{[5-(trifluoromethyl)pyridin-2-yl]oxy}phenyl)-1-oxa-8-azaspiro[4.5]decane-8-carboxamide] |  |  |  | 1130 | 1340 | (−)^c
7 | O=C(Nc1cccnn1)N1CCC2(CC1)C[C@H](c1cccc(Oc3ccc(C(F)(F)F)cn3)c1)CO2 [Example 3, (3R)—N-pyridazin-3-yl-3-(3-{[5-(trifluoromethyl)pyridin-2-yl]oxy}phenyl)-1-oxa-8-azaspiro[4.5]decane-8-carboxamide] |  |  |  | 2240 | 3040 | (−)^c
8 | O=C(Nc1cccnc1)N1CCC2(CC1)C[C@H](c1cccc(Oc3ccc(Br)cn3)c1)CO2 [Example 7, (3R)-3-{3-[(5-bromopyridin-2-yl)oxy]phenyl}-N-pyridin-3-yl-1-oxa-8-azaspiro[4.5]decane-8-carboxamide] | (+) |  |  | 526 | 2890 | 
9 | O=C(Nc1cccnc1)N1CCC2(CC1)C[C@@H](c1cccc(Oc3ccc(Br)cn3)c1)CO2 [Example 8] | (+) |  |  | 3520 | 1950 | 
10 | O=C(Nc1cccnn1)N1CCC2(CC1)C[C@H](c1cccc(Oc3ccc(Br)cn3)c1)CO2 [Example 9, (3R)-3-{3-[(5-bromopyridin-2-yl)oxy]phenyl}-N-pyridazin-3-yl-1-oxa-8-azaspiro[4.5]decane-8-carboxamide] | (+) |  |  | 3340 | 4970 | 
11 | O=C(Nc1cccnn1)N1CCC2(CC1)C[C@@H](c1cccc(Oc3ccc(Br)cn3)c1)CO2 [Example 10, (3S)-3-{3-[(5-bromopyridin-2-yl)oxy]phenyl}-N-pyridazin-3-yl-1-oxa-8-azaspiro[4.5]decane-8-carboxamide] | (+) |  |  | 5890 | 2690 | 
12 | O=C(Nc1cccnn1)N1CCC2(CC1)C[C@H](c1cccc(Oc3ccc(Cl)cn3)c1)CO2 [Example 11, (3R)-3-{3-[(5-chloropyridin-2-yl)oxy]phenyl}-N-pyridazin-3-yl-1-oxa-8-azaspiro[4.5]decane-8-carboxamide] | (+) |  |  | 1020 | 2420 | 
13 | O=C(Nc1cccnn1)N1CCC2(CC1)C[C@@H](c1cccc(Oc3ccc(Cl)cn3)c1)CO2 [Example 12, (3S)-3-{3-[(5-chloropyridin-2-yl)oxy]phenyl}-N-pyridazin-3-yl-1-oxa-8-azaspiro[4.5]decane-8-carboxamide] | (+) |  |  | 2270 | 2190 | 
14 | Cc1noc(NC(=O)N2CCC3(CC2)C[C@H](c2ccc(OCc4ccc(F)cc4)cc2)CO3)c1C [Example 41, (3R)—N-(3,4-dimethylisoxazol-5-yl)-3-{4-[(4-fluorobenzyl)oxy]phenyl}-1-oxa-8-azaspiro[4.5]decane-8-carboxamide] | (+) |  |  | 15800 | 12500 | 
15 | Cc1noc(NC(=O)N2CCC3(CC2)C[C@@H](c2ccc(OCc4ccc(F)cc4)cc2)CO3)c1C [Example 42, (3S)—N-(3,4-dimethylisoxazol-5-yl)-3-{4-[(4-fluorobenzyl)oxy]phenyl}-1-oxa-8-azaspiro[4.5]decane-8-carboxamide] | (+) |  |  | 5320 | 5590 | 
16 | Cc1noc(NC(=O)N2CCC3(CC2)C[C@H](c2ccc(OCc4cccc(F)c4)cc2)CO3)c1C [Example 47, (3R)—N-(3,4-dimethylisoxazol-5-yl)-3-{4-[(3-fluorobenzyl)oxy]phenyl}-1-oxa-8-azaspiro[4.5]decane-8-carboxamide] | (+) |  |  | 6260 | 9350 | 
17 | Cc1noc(NC(=O)N2CCC3(CC2)C[C@@H](c2ccc(OCc4cccc(F)c4)cc2)CO3)c1C [Example 48, (3S)—N-(3,4-dimethylisoxazol-5-yl)-3-{4-[(3-fluorobenzyl)oxy]phenyl}-1-oxa-8-azaspiro[4.5]decane-8-carboxamide] | (+) |  |  | 2540 | 4470 | 
18 | Cc1noc(NC(=O)N2CCC3(CC2)C[C@H](c2ccc(OCc4ccc(Cl)cc4)cc2)CO3)c1C [Example 49, (3R)-3-{4-[(4-chlorobenzyl)oxy]phenyl}-N-(3,4-dimethylisoxazol-5-yl)-1-oxa-8-azaspiro[4.5]decane-8-carboxamide] | (−) |  |  | 21900 | 16800 | 
